# Test results taken from patent US12084521B2, “TLR9 inhibitors to suppress inflammatory response to pathogens” (University Of Maryland, Baltimore, priority 2018, dated 2024).
# “Also recorded” adds a separate entry of the source. No end group written: not given here. Cy3 = Cy3 fluorescent dye label
# Experiments:
# TLR9 signaling [1] = test: ODN 1668-induced cytokine mRNA expression in BMDM (quantitative real time PCR); format: cell-based, mouse; conditions: BMDM; for TNFα mRNA expression / IL-10 mRNA expression / IL-12-p40 mRNA expression: peptide 10, 20 or 40 μM 30 min before ODN 1668 (1 μM), normalized to HPRT; for TNFα mRNA expression: 1 hour after stimulation; for IL-10 mRNA expression / IL-12-p40 mRNA expression: 1 hour; for inhibition of TLR9 signaling (ODN 1668-induced cytokine mRNA, overall): peptide 10, 20 or 40 μM, ODN 1668 1 μM
# Experimental: The cDNA obtained was amplified with gene-specific primers for mouse HPRT, TNFα, IL-10, IL-12-p40, or IL-6 and Fast SYBR Green™ master mix (Applied Biosystemsm) as previously described.
# Mouse BMDMs were incubated in the presence of a 10, 20 or 40 μM decoy peptide for 30 minutes prior to stimulation with ODN 1668 (1 μM). […] Data represent the means±SEM of at least three independent experiments. The statistical significance of changes in cytokine mRNA was determined by a one-way ANOVA test; *p<0.001. Peptides 9R3 and 9R34 have overlapping sequences (see Table 1).
# To investigate inhibition of TLR9 signaling by 9R34 analogues, the following work was performed. Mouse BMDMs were incubated in the presence of a 10, 20 or 40 μM decoy peptide for 30 minutes prior to stimulation with ODN 1668 (1 μM). Cytokine mRNA expression was measured 1 hour after ODN 1668 challenge and normalized to the expression of HPRT. See also Table 1. Data represent means±SEM of at least three independent experiments.
# TLR9 signaling [2] = test: ODN 1668-induced cytokine secretion in BMDM supernatants (ELISA); format: cell-based, mouse; conditions: peptide 40 μM; 5 hour supernatants; ODN 1668 1 μM
# Experimental: Mouse TNFα and IL-12-p40 concentrations were measured in supernatants using ELISA kits from Biolegend™, Inc.
# BMDMs were incubated in the presence of a decoy peptide for 30 minutes prior to stimulation with ODN 1668 (1 μM). The statistical significance of changes in cytokine levels was determined by the one-way ANOVA test; *p<0.01.
# myDDosome = conditions: BMDM pretreated with CPDP; MyD88 IP, IRAK4 blot
# Experimental: Four million BMDMs per well were plated in 6-well plates and treated with CPDP for 30 minutes prior to stimulation with ODN 1668 for 90 minutes. Cells were lysed in 600 p L of buffer containing 20 mM HEPES (pH 7.4), 150 mM NaCl, 10 mM NaF, 2 mM Na3VO4, 1 mM EDTA, 1 mM EGTA, 0.5% Triton X-100, 0.1 mM DTT, and protease inhibitor cocktail (Roche™). Cell extracts were incubated overnight with 1 μg of anti-mouse MyD88 antibody (AF3109) (R&D Systems™, followed by a 4-hour incubation with 20 μL protein G Sepharose beads (ThermoFisherm Scientific). The beads were then washed 3 times with 500 μL of lysis buffer and boiled in 60 μL of Laemmli sample buffer (Bio-Rad™). Cell extracts were electrophoresed on 10% acrylamide gel by SDS-PAGE and transferred to PVDF membrane (Bio-Rad™). Rabbit anti-MyD88 IgG was purchased from Cell Signaling™. Mouse anti-IRAK4 IgG was obtained from Abcam™. Alkaline phosphatase-conjugated secondary antibodies against mouse and rabbit IgG were purchased from Cell Signaling™. The stabilized substrate for alkaline phosphatase was from Promega™.
# TLR stimulation causes formation of myDDosome, a signaling complex composed through interactions of IRAK and MyD88 death domains. To test if peptides inhibit myDDosome formation, MyD88 was immunoprecipitated from lysates of ODN-stimulated BMDM and the precipitates analyzed for IRAK4 presence. BMDM were lysed and lysates immunoprecipitated with anti-MyD88 Ab and immune complexes assessed with anti-IRAK4 Ab 3 hours after cell treatment with ODN 1668.
# TLR9 signaling [3] = test: Plasma cytokines after i.p. ODN 1668 in mice; format: in vivo, C57BL/6J mice; conditions: peptide 200 nmol/mouse i.p.; ODN 1668 7.86 nmol/mouse
# Experimental: Systemic cytokine levels were measured in plasma samples obtained 1, 3, and 5 hours after intraperitoneal (i.p.) administration of 7.86 nmol (50 μg) of ODN 1668 or 67 nmol of Pam3C per mouse, using ELISA kits from Biolegend™ Inc. CPDP were dissolved in PBS and administered i.p. at the dose of 200 nmol per mouse 1 hour before administration of a TLR agonist. For survival experiments, mice were sensitized to TLR9 agonists by i.p. injection of 20 mg of D-Gal 30 minutes before administration of peptides or PBS. ODN 1668 was used at the doses of 3.93 or 7.86 nmol/mouse (25 or 50 μg/mouse) 1.5 hours after D-Gal. Animal survival was monitored for 50 hours. All agents were administered i.p. in 500 μL volume of PBS. Animals had free access to food and water during the observation period. All animal experiments were conducted in accordance with the national guidelines for the care and use of laboratory animals under a protocol that was approved by the UMB IACUC.
# To test the in vivo efficacy and specificity of 9R34-ΔN, C57BL/6J mice were mock-treated or treated i.p. with a single dose of inhibitory or control peptide (200 nmol/mouse) and challenged with TLR9 agonist ODN 1668 (7.86 nmol/mouse) or TLR2/1 agonist Pam3C (67 nmol/mouse) 1 hour later. Plasma concentrations of TNFα and IL-12-p40 were measured 1, 3, and 5 hours after the challenge. Both TLR agonists increased concentrations of TNFα and IL-12-p40 in 1 hour samples from below the limit of detection to about 1.2 and about 6 ng/mL in the case of ODN 1668, and to 0.12 ng/mL and 1 ng/mL after treatment with Pam3C.
# Plasma TNFα and IL-12-p40 levels following intraperitioneal administration of ODN 1668 to C57Bl/6J mice in peptide-pretreated and control mice are shown in FIG. 14A and FIG. 14B. Data shown in these figures represent the means±SEM obtained in at least three independent experiments. The statistical significance of changes in cytokine concentrations was determined by a two-way ANOVA test; *p<0.001.
# [4] = test system: Cer not fused to a TIR domain; test: FLIM/FRET control construct in HeLa cells; format: binding; conditions: peptide 40 μM
# Experimental: (§1) Three million HeLa cells were transfected with 10 μg of MyD88-Cer, TIRAP-Cer, TRAM-Cer, TLR2-Cer, TLR4 TIR-Cer, or TLR9 TIR-Cer expression vectors using a Lipofectamine™ 3000 kit from Invitrogen™ per manufacturer recommendations. Twenty four hours later, the transfected cells were trypsinized and reseeded into a 50-well gasket (Grace Bio-Labs™) mounted on a microscope slide at the density 8000 cells/well. The next day, cells were treated with Cy3-9R34-ΔN or Cy3-9R11 for 1 hour and fixed on the slides with a 4% paraformaldehyde solution.
# (§2) Fluorescence lifetime images were acquired using the Alba V FLIM™ system (ISS™ Inc.). The excitation was from the laser diode 443 nm coupled with scanning module (ISS™) through multiband dichroic filter 443/532/635 nm (Semrock™) to Olympus™ IX71S microscope with objective 20×0.45 NA (UPlan™ Olympus™). Emission was observed through bandpass filter […] (Chroma Technology™) and detected by a photomultiplier H7422-40 (Hamamatsu™). Measurements were performed using frequency domain (FD) and time domain (TD) modalities of the FLIM system. FD FLIM data were acquired using ISS™ A320 FastFLIM™ electronics with n harmonics of 20 MHz laser repetition frequency (n=1, 2, 3, 4, 5, 6). FastFLIM™ was calibrated using fluorescein in buffer pH 8.0 as a standard with a single lifetime of 4.0 ns. TD FLIM images were acquired using time-correlated single photon counting TCSPC™ Model SPC-830 (Becker & Hick™).
# (§3) Images (256×256 pixels) were acquired with resolution varied in the range ˜0.4-0.7 μm/pixel, using scan speed 1 ms/pixel. To avoid pixel intensity saturation in bright cells and to improve the signal from dim cells, two to five overlapping scans were used for acquisition of FLIM images. Image sizes varied from 100×100 to 180×180 μm to accommodate multiple cells. FLIM data were analyzed with VistaVision™ Suite software (Vista™ v.212 from ISST). Fluorescence lifetime was determined using single- and bi-exponential intensity decay models. Average lifetime images were generated based on pixel-by-pixel analysis using the combined signal of two neighboring pixels in all directions (bin 2=25 pixels). The binning was used to improve the signal for analysis. The average lifetimes were calculated from fitted parameters, decay times τi and amplitudes αi, τa=Σαiτi. The bi-exponential fitting procedure was performed with one lifetime component fixed at 3.1 nsec, which was found common for most images. To calculate the effective FRET efficiency (E), average lifetimes of the donor only images (τD) and donor-acceptor images (τDA) were used, E=1−τDA/τD.
# (§4) TLR9, MyD88, and TIRAP were selected as potential primary binding partners for Cy3-9R34-ΔN and Cy3-9R11. Cer-fused TLR2 and TLR4 TIR domains, and Cer not fused to a TIR, were used as controls. […] Therefore, the TIRAP-Cer with Cy3-2R9 was used as a positive binding control. Binding of Cy3-labeled CPDPs to Cerulean- (Cer-) labeled TIR domains was tested as follows. Fluorescence Lifetime IMages (FLIM) were made of HeLa cells expressing Cer not fused with a TIR domain (upper row) or fused with TLR9 TIR or TIRAP TIR (middle and bottom rows) and treated with a Cy3-labeled decoy peptide for 1 hour.
# TLR9 TIR = target: T1, TLR9 TIR (Homo sapiens, UniProt Q9NR96); test: FLIM/FRET binding of Cy3-labeled peptides to Cer-fused TIR in HeLa cells; conditions: HeLa cells, Cy3-peptide 2.5-40 μM, 1 hour, dose-dependent
# T1 construct: expressed in transfected cells; host or cells: HeLa
# T1 sequence (Q9NR96 868-1013 limits assumed): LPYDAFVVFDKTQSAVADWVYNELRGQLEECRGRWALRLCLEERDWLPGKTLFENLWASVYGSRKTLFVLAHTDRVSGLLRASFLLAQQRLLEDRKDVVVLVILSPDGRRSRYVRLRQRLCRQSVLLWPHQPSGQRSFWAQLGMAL
# Experimental: as §1, §2, §3
# (§5) To identify potential binding partners of inhibitory peptides a FRET approach coupled with Fluorescence Lifetime Imaging Microscopy (FLIM) was used. HeLa cells were transiently transfected with an expression vector that encodes a TIR domain fused with Cerulean fluorescent protein (Cer). Cells were treated with various concentrations of a Cy3-labeled inhibitory peptide 48 hours after transfection. Cy3 is a suitable FRET acceptor for Cer fluorescence. A direct molecular interaction of a Cy3-labeled peptide with Cer-fused TIR domain should quench Cer fluorescence, leading to a decreased fluorescence lifetime.
# as §4
# (§6) A progressive shift of average fluorescence lifetime towards lower values observed with increasing peptide concentrations indicates the binding between donor and acceptor moieties. […]
# TIRAP TIR = target: T2, TIRAP TIR (Homo sapiens, UniProt P58753); test: as above; conditions: HeLa cells, Cy3-peptide 2.5-40 μM, 1 hour
# T2 construct: fused with TLR9 TIR or TIRAP TIR; expressed in transfected cells; host or cells: HeLa
# Experimental: as §1, §2, §3, §5, §4, §6
# MyD88 TIR = target: T3, MyD88 TIR (Homo sapiens, UniProt Q99836); test: as above
# T3 construct: expressed in transfected cells; host or cells: HeLa
# Experimental: as §1, §2, §3, §5, §4, §6
# T2 sequence (P58753 84-213 limits assumed): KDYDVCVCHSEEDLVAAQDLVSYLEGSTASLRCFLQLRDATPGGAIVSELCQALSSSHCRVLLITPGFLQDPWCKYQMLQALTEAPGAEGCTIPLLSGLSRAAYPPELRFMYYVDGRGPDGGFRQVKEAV
# T3 sequence (Q99836 159-293 limits assumed): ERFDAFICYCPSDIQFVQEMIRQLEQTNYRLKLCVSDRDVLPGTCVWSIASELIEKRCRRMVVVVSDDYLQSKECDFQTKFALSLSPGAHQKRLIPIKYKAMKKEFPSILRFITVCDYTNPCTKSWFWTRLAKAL
substance,measurement,setting,value
RYVRLRQRLCRQS (Synthetic peptide 9R9),TNFα mRNA expression,TLR9 signaling [1],significantly suppressed
same,IL-10 mRNA expression,TLR9 signaling [1],significantly suppressed
same,IL-12-p40 mRNA expression,TLR9 signaling [1],significantly suppressed
same,"inhibition of TLR9 signaling (ODN 1668-induced cytokine mRNA, overall)",TLR9 signaling [1],inhibit TLR9 signaling; also recorded: inhibited signaling weaker than 9R34 or 9R11
same,production/secretion of TNFα,TLR9 signaling [2],did not inhibit significantly
same,secretion of IL-12-p40,TLR9 signaling [2],reduced secretion
SPDGRRSRYVR (Synthetic peptide 9R8),"inhibition of TLR9 signaling (ODN 1668-induced cytokine mRNA, overall)",TLR9 signaling [1],some inhibitory activity
GRWALRLSLEERD (Synthetic peptide 9R34-C/S),"inhibition of TLR9 signaling (ODN 1668-induced cytokine mRNA, overall)",TLR9 signaling [1],as potent as the parent peptide
GRWALRACLEERD (Synthetic peptide 9R34-delta-L1) [Peptide 9R34-ΔL1],"inhibition of TLR9 signaling (ODN 1668-induced cytokine mRNA, overall)",TLR9 signaling [1],inhibited TLR9 signaling less potently
DKTQSAVADWVYNE (Synthetic peptide 9R2),ODN 1668-induced myDDosome formation,myDDosome,not
same,"inhibition of TLR9 signaling (ODN 1668-induced cytokine mRNA, overall)",TLR9 signaling [1],did not inhibit TLR9
same,"ODN 1668-induced plasma cytokine levels (TNFα, IL-12-p40)",TLR9 signaling [3],did not significantly reduce
GRWALRLCLE (Synthetic peptide 9R34-delta-C) [Peptide 9R34-ΔC],"inhibition of TLR9 signaling (ODN 1668-induced cytokine mRNA, overall)",TLR9 signaling [1],as potent as the parent peptide
HTDRVSGLLRASFL (Synthetic peptide 9R6),TNFα mRNA expression,TLR9 signaling [1],partial activity
same,IL-12-p40 mRNA expression,TLR9 signaling [1],partial activity
same,"inhibition of TLR9 signaling (ODN 1668-induced cytokine mRNA, overall)",TLR9 signaling [1],some inhibitory activity; also recorded: weakly inhibited
"RGQLEECRGRWALR (also: antennapedia vector attached) [Peptide 9R3, tested as CPDP with antennapedia vector]",TNFα mRNA expression,TLR9 signaling [1],significantly suppressed
same,IL-10 mRNA expression,TLR9 signaling [1],significantly suppressed
same,IL-12-p40 mRNA expression,TLR9 signaling [1],significantly suppressed
same,"inhibition of TLR9 signaling (ODN 1668-induced cytokine mRNA, overall)",TLR9 signaling [1],inhibit TLR9 signaling
"Cy3-9R11: Cy3-labeled 9R11 peptide, Cy3 label placed at the peptide N-terminus (Cy3-RQIKIWFQNRRMKWKKRSFWAQLGMALTRD)",fluorescence lifetime of Cer not fused to a TIR domain (unspecific quenching),[4],Unspecific Cer quenching
same,"FRET efficiency, TLR9 TIR-Cer",TLR9 TIR,3-27%
same,quenching of TIRAP-Cer fluorescence,TIRAP TIR,"induced FRET from TIRAP-Cer, but only when used at higher concentrations of 10 or 40 μM"
same,quenching of MyD88-Cer fluorescence lifetime,MyD88 TIR,"detectable, but less effective"
GRWALRACAEERD (Synthetic peptide 9R34-delta-L2) [Peptide 9R34-ΔL2],"inhibition of TLR9 signaling (ODN 1668-induced cytokine mRNA, overall)",TLR9 signaling [1],inhibited TLR9 signaling less potently
LEERDWLPGKTLFE (Synthetic peptide 9R4),"inhibition of TLR9 signaling (ODN 1668-induced cytokine mRNA, overall)",TLR9 signaling [1],did not inhibit
